# Measured values reported in paper PMC7835878, “A Selective Competitive Inhibitor of Aldehyde Dehydrogenase 1A3 Hinders Cancer Cell Growth, Invasiveness and Stemness In Vitro” (Cancers, 2021).
# T1: Aldehyde dehydrogenase 1A3 (ALDH1A3) (Homo sapiens, UniProt P47895)
# T1 sequence (P47895 2-512): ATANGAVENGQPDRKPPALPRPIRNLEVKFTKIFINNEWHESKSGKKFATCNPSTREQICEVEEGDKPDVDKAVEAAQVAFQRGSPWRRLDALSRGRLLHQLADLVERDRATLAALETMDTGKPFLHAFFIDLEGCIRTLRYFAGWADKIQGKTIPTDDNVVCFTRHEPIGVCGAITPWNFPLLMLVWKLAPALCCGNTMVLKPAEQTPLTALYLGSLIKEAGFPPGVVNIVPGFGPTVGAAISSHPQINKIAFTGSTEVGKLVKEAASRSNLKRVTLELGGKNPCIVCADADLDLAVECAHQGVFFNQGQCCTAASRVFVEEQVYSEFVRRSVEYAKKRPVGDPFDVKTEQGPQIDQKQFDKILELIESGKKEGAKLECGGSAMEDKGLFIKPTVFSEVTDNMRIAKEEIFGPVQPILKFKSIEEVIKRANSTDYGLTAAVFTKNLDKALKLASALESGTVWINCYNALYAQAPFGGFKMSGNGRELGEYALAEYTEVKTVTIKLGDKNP
# Columns and labels:
# [1] = target: T1, Aldehyde dehydrogenase 1A3 (ALDH1A3); assay: X-ray crystal structure of the complex with NR6 (protein preincubated with […] NAD+); type: binding
# [2] = target: the molecule itself; assay: crystal structure; ALDH1A3 at 8 mg/mL preincubated with 1 mM NAD+ and 300 uM NR6; sitting drop vapor diffusion, 2.4 M sodium malonate pH 7.0, 20 °C; space group P2(1)22(1), two molecules per asymmetric unit
Molecule,X-ray crystal structure of the complex with NR6 (protein preincubated with 1 mM) [1],binding result [2]
NC(=O)c1ccc[n+]([C@@H]2O[C@H](COP(=O)([O-])OP(=O)(O)OC[C@H]3O[C@@H](n4cnc5c(N)ncnc54)[C@H](O)[C@@H]3O)[C@@H](O)[C@H]2O)c1 [NAD+],both are bonded with one molecule of NAD^+ and one molecule of NR6,
"human aldehyde dehydrogenase 1A3 (enzyme, Aldehyde dehydrogenase 1A3 (ALDH1A3), human, recombinant; also called ALDH1A3; hALDH1A3; source: recombinant, purified) MATANGAVENGQPDRKPPALPRPIRNLEVKFTKIFINNEWHESKSGKKFATCNPSTREQICEVEEGDKPDVDKAVEAAQVAFQRGSPWRRLDALSRGRLLHQLADLVERDRATLAALETMDTGKPFLHAFFIDLEGCIRTLRYFAGWADKIQGKTIPTDDNVVCFTRHEPIGVCGAITPWNFPLLMLVWKLAPALCCGNTMVLKPAEQTPLTALYLGSLIKEAGFPPGVVNIVPGFGPTVGAAISSHPQINKIAFTGSTEVGKLVKEAASRSNLKRVTLELGGKNPCIVCADADLDLAVECAHQGVFFNQGQCCTAASRVFVEEQVYSEFVRRSVEYAKKRPVGDPFDVKTEQGPQIDQKQFDKILELIESGKKEGAKLECGGSAMEDKGLFIKPTVFSEVTDNMRIAKEEIFGPVQPILKFKSIEEVIKRANSTDYGLTAAVFTKNLDKALKLASALESGTVWINCYNALYAQAPFGGFKMSGNGRELGEYALAEYTEVKTVTIKLGDKNP",,binds
